Values of other authors in patent publication US20180327482A1, “METHODS AND COMPOSITIONS FOR THE TREATMENT OF HCMV” (priority 2013, published 2018).

Test system: cells latently infected with HCMV
Conditions: Weekes et al., Science 340:199-202 (2013)

CC[C@]1(O)C[C@H]2CN(CCc3c([nH]c4ccccc34)[C@@](C(=O)OC)(c3cc4c(cc3OC)N(C=O)[C@H]3[C@@](O)(C(=O)OC)[C@H](OC(C)=O)[C@]5(CC)C=CCN6CC[C@]43[C@@H]65)C2)C1 [Vincristine]
Elimination of cells latently infected with HCMV: can be used therapeutically to eliminate cells latently infected with HCMV
